Results taken from patent publication US6706737B2, “Alkoxy substituted benzimidazole compounds, pharmaceutical preparations containing the same, and methods of using the same” (priority 1999, dated 2004).
“And” between values parts separate entries of the source, which are not always exact repeats. Equal entries are not always repeated.

Experiment: Solubility assessment as a function of HPβCD concentration
Assay type: physicochemical
Experimental: Solubility studies were performed by the addition of a known mass of 5(6)-methoxy-2[[(methoxy-3,5-dimethyl-2-pyridinyl)-methyl]sulfinyl]-1H-benzimidazole and/or HP CD to a given volume of solvent system. Solubilities were determined by observation, as the maximum concentration at which 5(6)-methoxy-2-[[(4-methoxy-3,5-dimethyl-2-pyridinyl)-methyl]sulfinyl]-1H-benzimidazole completely dissolved. Additionally, concentrations of 5(6)-methoxy-2-[[(4-methoxy-3,5-dimethyl-2-pyridinyl)methyl]sulfinyl]-1H-benzimidazole and HP CD at set molar ratios were solubilized in systems of high pH (adjusted as high as 12.2, with 1N NaOH), the pH was adjusted (using 2N HCl) in a stepwise downward manner until precipitation occurred.
The solubility of 5(6)-methoxy-2-[[(4-methoxy-3,5-dimethyl-2-pyridinyl)-methyl]sulfinyl]-1H-benzimidazole was assessed as a function of HPβCD concentration in water. […] In general, the solubility of the active ingredient is influenced by solution pH.
The procedure according to Example 86 was repeated except that water with a borate buffer (pH of 8) was employed.
The procedure according to Example 86 was repeated except that water with a phosphate buffer (pH of 11) was employed.

## COc1ccc2[nH]c([S+]([O-])Cc3ncc(C)c(OC)c3C)nc2c1 (stereo not shown) [5(6)-methoxy-2-[[(4-methoxy-3,5-dimethyl-2-pyridinyl)-methyl]sulfinyl]-1H-benzimidazole]
water
  aqueous solubility: approximately 0.3 mg/mL and ~0.9 mM
  solubility as a function of HPβCD concentration: increase linearly
Water with a borate buffer (pH of 8)
  solubility as a function of HPβCD concentration: increase linearly
Water with a phosphate buffer (pH of 11)
  solubility as a function of HPβCD concentration: increase linearly
